Several values for one entry are separate records, joined by “and”; a condition that tells them apart may be missing. Identical values can stand only once. Activity calls are given as the source filed them.
What was measured:
[1] = target: Latent membrane protein 1 (Human herpesvirus 4 (strain B95-8), UniProt P03230); assay: TES1-eGFP NF-kB reporter inhibition versus Tet-On dsRED, dose response, selectivity assay for LMP1 NF-kB inhibitor project, imaging, HEK293T, dual-color eGFP/dsRED, cherry-picks (AID 588398); assay type: functional, cell-based
Chain of Latent membrane protein 1 (P03230 whole entry): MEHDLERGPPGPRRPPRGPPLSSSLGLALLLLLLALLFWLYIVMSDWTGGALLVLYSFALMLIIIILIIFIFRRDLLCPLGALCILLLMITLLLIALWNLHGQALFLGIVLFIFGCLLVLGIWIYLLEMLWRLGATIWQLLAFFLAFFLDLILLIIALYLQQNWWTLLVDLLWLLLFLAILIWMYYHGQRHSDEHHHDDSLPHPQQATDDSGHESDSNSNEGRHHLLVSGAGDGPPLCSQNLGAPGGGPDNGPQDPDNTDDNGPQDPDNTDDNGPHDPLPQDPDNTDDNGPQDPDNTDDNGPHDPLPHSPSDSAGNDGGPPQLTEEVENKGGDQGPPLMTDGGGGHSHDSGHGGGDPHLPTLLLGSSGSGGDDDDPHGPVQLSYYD

[2] = cytotoxicity toward Colo320 cells – cell-based, CellTiter-Glo luminescence, IC50, dose response (AID 1117334); assay type: functional; conditions: COLO 320
[3] = Concentration-dependent survival of SW480 colon cancer line, luminescence detection with CellTiter-Glo, half-maximal inhibitory concentration (AID 1117338); assay type: functional
[4] = cytotoxicity in HEK-293T cells, dose response, cytotoxicity control for BCR NF-kB inhibitor project, luminescence, B-cell screen hits (AID 489021); assay type: functional, cell-based;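 also: HEK-293T cells carrying an NF-kB luciferase reporter; cells exposed to compound for about 14 hours before viability readout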
Exodeoxyribonuclease V = target: T1, Exodeoxyribonuclease V (Escherichia coli (strain K12), UniProt P04993+P07648+P08394); assay: E. coli RecBCD inhibitors, dose response, counter-screen for AddAB inhibitor project, absorbance, V66 E. coli, mutant T4 phage (AID 492957); assay type: functional, cell-based, Escherichia coli str. K-12 substr. MG1655
T1 sequence (P04993 whole entry): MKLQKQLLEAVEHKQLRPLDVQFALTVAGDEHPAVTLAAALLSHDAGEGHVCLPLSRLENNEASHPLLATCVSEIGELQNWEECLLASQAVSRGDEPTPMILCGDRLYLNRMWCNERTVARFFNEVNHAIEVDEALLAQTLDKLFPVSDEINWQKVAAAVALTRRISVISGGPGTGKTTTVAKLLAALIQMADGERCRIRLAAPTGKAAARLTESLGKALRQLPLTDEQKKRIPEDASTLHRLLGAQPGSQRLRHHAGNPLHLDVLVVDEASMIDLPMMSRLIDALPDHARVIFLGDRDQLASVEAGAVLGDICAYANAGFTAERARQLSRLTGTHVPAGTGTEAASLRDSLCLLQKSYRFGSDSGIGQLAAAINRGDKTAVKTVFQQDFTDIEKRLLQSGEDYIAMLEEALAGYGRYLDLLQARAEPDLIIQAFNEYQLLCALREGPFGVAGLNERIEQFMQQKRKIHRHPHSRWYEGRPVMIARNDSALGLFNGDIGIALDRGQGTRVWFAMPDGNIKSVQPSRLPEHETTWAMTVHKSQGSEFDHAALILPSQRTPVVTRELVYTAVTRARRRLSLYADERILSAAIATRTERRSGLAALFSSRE
T1 sequence (P07648 whole entry): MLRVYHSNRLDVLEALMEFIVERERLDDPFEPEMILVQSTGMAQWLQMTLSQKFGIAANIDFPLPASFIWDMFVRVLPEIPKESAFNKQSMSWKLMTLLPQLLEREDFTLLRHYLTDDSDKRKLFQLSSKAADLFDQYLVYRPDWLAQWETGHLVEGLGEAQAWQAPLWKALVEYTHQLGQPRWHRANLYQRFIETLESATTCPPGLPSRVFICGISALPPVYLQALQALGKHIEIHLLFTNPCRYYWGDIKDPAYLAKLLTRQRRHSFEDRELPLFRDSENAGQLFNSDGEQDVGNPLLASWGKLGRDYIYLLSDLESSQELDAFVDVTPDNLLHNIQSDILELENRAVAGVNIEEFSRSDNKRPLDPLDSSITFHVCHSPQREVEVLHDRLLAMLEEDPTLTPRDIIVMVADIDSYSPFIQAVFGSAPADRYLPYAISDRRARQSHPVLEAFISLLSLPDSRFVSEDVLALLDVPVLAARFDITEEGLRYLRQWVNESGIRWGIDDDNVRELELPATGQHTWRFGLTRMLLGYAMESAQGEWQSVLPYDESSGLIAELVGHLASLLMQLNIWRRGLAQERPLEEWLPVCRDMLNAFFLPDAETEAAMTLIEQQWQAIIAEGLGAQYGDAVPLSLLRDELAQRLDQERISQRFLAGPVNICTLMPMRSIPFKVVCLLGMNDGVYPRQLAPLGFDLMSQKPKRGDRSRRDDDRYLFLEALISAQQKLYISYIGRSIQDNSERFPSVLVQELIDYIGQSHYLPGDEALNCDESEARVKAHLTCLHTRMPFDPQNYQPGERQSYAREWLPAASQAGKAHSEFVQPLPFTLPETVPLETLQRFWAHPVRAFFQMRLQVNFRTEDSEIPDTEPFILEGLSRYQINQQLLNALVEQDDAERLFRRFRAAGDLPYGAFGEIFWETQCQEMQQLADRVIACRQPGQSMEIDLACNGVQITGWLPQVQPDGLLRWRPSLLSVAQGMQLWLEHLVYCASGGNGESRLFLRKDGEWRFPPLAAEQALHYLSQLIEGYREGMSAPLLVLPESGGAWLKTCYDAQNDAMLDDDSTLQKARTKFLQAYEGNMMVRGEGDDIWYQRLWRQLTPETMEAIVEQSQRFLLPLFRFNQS
T1 sequence (P08394 whole entry): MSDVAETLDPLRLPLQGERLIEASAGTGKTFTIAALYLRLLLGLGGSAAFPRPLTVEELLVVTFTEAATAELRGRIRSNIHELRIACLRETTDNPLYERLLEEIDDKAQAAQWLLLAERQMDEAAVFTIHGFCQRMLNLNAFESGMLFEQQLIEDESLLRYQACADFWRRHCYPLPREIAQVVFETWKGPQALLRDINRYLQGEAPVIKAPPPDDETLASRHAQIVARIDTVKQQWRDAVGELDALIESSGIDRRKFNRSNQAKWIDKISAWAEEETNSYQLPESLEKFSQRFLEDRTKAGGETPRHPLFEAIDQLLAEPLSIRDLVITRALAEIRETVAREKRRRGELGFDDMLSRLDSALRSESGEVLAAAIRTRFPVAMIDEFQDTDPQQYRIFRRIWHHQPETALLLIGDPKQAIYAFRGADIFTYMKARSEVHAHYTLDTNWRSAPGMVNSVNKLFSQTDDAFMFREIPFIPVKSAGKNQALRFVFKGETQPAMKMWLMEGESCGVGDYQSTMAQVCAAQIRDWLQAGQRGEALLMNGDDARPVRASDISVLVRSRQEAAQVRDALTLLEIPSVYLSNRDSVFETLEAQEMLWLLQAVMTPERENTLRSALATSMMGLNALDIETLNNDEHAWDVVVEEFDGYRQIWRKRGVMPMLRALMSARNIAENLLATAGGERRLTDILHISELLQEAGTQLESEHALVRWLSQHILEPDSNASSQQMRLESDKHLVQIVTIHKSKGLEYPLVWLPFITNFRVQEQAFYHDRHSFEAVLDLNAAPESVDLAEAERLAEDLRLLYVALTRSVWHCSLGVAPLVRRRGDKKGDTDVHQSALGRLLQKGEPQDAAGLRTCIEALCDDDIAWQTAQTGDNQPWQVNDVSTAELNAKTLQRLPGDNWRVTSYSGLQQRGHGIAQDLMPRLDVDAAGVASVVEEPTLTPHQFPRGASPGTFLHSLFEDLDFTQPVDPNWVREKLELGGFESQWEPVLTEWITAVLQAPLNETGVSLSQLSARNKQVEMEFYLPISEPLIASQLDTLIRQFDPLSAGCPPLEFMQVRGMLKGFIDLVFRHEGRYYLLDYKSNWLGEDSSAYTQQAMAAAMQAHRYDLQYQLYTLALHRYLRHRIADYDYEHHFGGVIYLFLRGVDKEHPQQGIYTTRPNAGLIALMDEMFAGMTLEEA

[5] = cytotoxicity toward HT-29 cells – cell-based, CellTiter-Glo luminescence, IC50, dose response (AID 1117330); assay type: functional
[6] = SNU-C1 cell viability reduction, dose response, CellTiter-Glo luminescence (AID 1117323); assay type: functional, cell-based
[7] = CellTiter-Glo luminescent dose response of DLD-1 viability loss (AID 1117352); assay type: functional
[8] = Luminescence Cell-Based Dose Retest to Confirm Inhibitors of Cancer Stem Cells. [Related pubchem assays (depositor defined):AID2717, AID2721]; assay type: functional; conditions: Homo sapiens
[9] = Luminescence-based dose response cell-based high throughput screening assay for cytotoxic compounds using the IEC-6 intestinal epithelial cell line. [Related pubchem assays: 1858 (Summary AID.), 1825 (Counterscreen.), 1907 (Confirmation screen.)]; assay type: functional
HEK293 = assay: inhibitors of LMP1-driven NF-kB reporter, dose response, cell-based, HEK293, luciferase, cherry-pick (AID 588343); assay type: functional; conditions: Homo sapiens
INS1 [10] = assay: protection from cytokine-induced mitochondrial depolarization, dose response, cell-based, INS-1E, JC-1 fluorescence ratio, dry powder (AID 488931); assay type: functional; conditions: Rattus norvegicus
INS1 [11] = assay: inhibitors of cytokine-induced nitrite release, dose response, cell-based, Griess absorbance, INS-1E, dry powder, set 2 (AID 488868); assay type: functional; conditions: Rattus norvegicus
INS1 [12] = assay: inhibitors of cytokine-induced nitrite release, dose response, cell-based, Griess absorbance, INS-1E, dry powder (AID 488866); assay type: functional; conditions: Rattus norvegicus
INS1 [13] = assay: protection of INS-1E cells from cytokine death, dose response, ATP luminescence, dry powder (AID 488844); assay type: functional, cell-based; conditions: Rattus norvegicus
INS1 [14] = assay: caspase-3/7 inhibition in cytokine-treated INS-1E, dose response, beta-cell apoptosis inhibitor project, cell-based, caspase luminescence, dry powder (AID 488848); assay type: functional; conditions: Rattus norvegicus
[15] = inhibitors of cytokine-induced nitrite release, dose response, cell-based, Griess absorbance, INS-1E, dry powder, set 3 (AID 488870); assay type: functional; conditions: Rattus norvegicus
[16] = target: Disintegrin and metalloproteinase domain-containing protein 17 (Homo sapiens, UniProt P78536); assay: ADAM17 protease inhibitors, dose response, counter-screen for ADAM10 exosite inhibitor project, biochemical, quenched FRET substrate (AID 743253)
Chain of Disintegrin and metalloproteinase domain-containing protein 17 (P78536 whole entry, the tested form may be a part): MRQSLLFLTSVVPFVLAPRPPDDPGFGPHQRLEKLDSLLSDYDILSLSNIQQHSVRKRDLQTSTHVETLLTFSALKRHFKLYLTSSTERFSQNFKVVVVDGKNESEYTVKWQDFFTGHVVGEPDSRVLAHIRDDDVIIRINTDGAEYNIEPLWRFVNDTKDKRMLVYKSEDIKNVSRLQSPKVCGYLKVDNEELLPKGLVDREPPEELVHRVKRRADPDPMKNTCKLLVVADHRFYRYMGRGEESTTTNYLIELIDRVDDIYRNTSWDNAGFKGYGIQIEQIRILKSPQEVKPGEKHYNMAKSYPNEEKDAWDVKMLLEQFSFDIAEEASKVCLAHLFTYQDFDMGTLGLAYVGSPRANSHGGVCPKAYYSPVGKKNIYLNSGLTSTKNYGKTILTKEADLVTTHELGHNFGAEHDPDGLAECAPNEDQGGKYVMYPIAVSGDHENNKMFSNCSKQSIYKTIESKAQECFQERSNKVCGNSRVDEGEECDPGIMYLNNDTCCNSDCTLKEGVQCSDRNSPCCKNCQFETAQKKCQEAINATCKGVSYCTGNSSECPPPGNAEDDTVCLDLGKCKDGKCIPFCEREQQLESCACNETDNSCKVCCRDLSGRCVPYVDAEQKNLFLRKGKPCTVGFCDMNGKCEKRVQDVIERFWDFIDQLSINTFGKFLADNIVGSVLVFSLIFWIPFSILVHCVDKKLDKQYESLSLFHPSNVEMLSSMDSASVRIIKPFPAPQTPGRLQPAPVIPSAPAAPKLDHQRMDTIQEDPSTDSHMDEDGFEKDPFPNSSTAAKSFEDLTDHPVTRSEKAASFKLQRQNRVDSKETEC

CAAX prenyl protease 2 [17] = target: T2, CAAX prenyl protease 2 (Saccharomyces cerevisiae S288c, UniProt Q03530); assay: yeast Rce1 CaaX protease inhibitors, dose response, biochemical, plate reader, dry powder retest (AID 588851)
T2 sequence (Q03530 whole entry): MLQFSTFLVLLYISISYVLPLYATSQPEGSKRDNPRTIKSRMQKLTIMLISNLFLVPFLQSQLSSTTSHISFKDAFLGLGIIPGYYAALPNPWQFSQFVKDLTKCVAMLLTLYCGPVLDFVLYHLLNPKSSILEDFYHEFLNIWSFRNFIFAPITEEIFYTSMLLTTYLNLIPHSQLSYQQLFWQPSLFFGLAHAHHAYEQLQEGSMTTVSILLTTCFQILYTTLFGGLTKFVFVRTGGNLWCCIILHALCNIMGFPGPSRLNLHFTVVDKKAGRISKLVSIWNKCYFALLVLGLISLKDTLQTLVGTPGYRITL

CAAX prenyl protease 2 [18] = target: T2, CAAX prenyl protease 2; assay type: biochemical
[19] = ADAM10 inhibitors, peptide cleavage, dose response, biochemical, QFRET (AID 743254);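 also: ADAM10 enzyme with the DM2 quenched FRET peptide as substrate; EDANS fluorescence gain as the protease cuts the substrate; inhibitor potency against ADAM10 proteolytic activity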

## O=c1[nH]c(=O)n([C@H]2C[C@H](O)[C@@H](CO)O2)cc1C(F)(F)F [TRIFLURIDINE]
[1]
  AC50: 1.13 µM (active)
[2]
  IC50: > 20 µM (inactive)
[3]
  IC50: > 20 µM (inactive)
[4]
  IC50: > 80 µM (inactive)
Exodeoxyribonuclease V
  IC50: > 118 µM (inactive) and > 119 µM (inactive)
[5]
  IC50: > 20 µM (inactive)
[6]
  IC50: > 20 µM (inactive)
[7]
  IC50: > 20 µM (inactive)
[8]
  AC50: 1.66 µM (active)
[9]
  IC50: 1.75 µM (active)
HEK293
  AC50: 3.28 µM (active)

## COc1ccc(S(=O)(=O)N(C)C[C@@H]2Oc3c(NC(=O)Nc4cccc5ccccc45)cccc3C(=O)N([C@@H](C)CO)C[C@H]2C)cc1C
INS1 [10]
  AC50: 4.91 µM (active)
INS1 [11]
  AC50: 25.1 µM (active)
INS1 [12]
  AC50: 45.2 µM (active)
INS1 [13]
  AC50: 0.436 µM (active)
INS1 [14]
  AC50: 0.414 µM (active)
[15]
  AC50: 34.5 µM (active)

## CC(C)c1c(C(=O)N/N=C/c2cccc3ccccc23)nnn1-c1nonc1N
[16]
  IC50: > 69.5 µM (inactive)
CAAX prenyl protease 2 [17]
  AC50: 3.25 µM (active)
CAAX prenyl protease 2 [18]
  AC50: 0.117 µM (active)
[19]
  IC50: > 69.5 µM (inactive)
